# Measured values: US5902810A, “Pteridine derivatives as no synthase inhibitors” (Hoechst Aktiengesellschaft, priority 1994, dated 1999)
# Biological target: T1, purified NO synthase from pig cerebellum (Sus scrofa, UniProt F1RKF2)
# T1 construct: purified NO synthase from pig cerebellum; from tissue; host or cells: pig cerebellum
# Assay: Inhibition of the activity of purified nitric oxide synthase (NOS), 3H-L-citrulline formation, enzyme from pig cerebellum
# Type: biochemical
# Conditions: 0.25 h, substance 100 μM, antagonistic test in the presence of 2 μM tetrahydrobiopterin, 37° C., 15 minutes, read-out: Citrulline formation (% of the control)
# Description: In this assay for purified NO synthase (NOS) the coproduct L-citrulline obtained during NO formation is determined quantitatively. This is carried out by the use of ^3 H-radiolabeled L-arginine as a substrate of the enzyme reaction, which is reacted to give ^3 H-L-citrulline and NO. After the enzyme incubation is complete, resulting L-citrulline is removed from unused L-arginine by means of ion-exchange chromatography of the reaction mixture; the ^3 H-activity determined by liquid scintillation measurement then corresponds to the amount of L-citrulline.
# The coproduct L-citrulline obtained during the formation of NO by purified NOS is determined quantitatively in this activity assay. The substrate of the enzyme reaction employed is ^3 H-radiolabeled L-arginine, which is reacted to give ^3 H-L-citrulline and NO. After the enzyme incubation is complete, resulting L-citrulline is removed from unused L-arginine by means of ion-exchange chromatography of the reaction mixture; the ^3 H activity measured by liquid scintillation then corresponds to the amount of L-citrulline, which is a direct measure of the activity of NOS.
# The base medium for carrying out the enzyme reaction is TE buffer (triethanolamine, EDTA, pH 7.0). The final volume of each incubation is 100 μl. The reaction mixture is obtained by mixing the following 6 components on ice:
# "REA mix" (pH 7.0), which contains triethanolamine, calcium chloride, magnesium chloride, EDTA, L-arginine, calmodulin and flavine adenine dinucleotide (FAD);
# 2. freshly prepared stock solution of β-nicotinamide adenine dinucleotide phosphate, reduced form (NADPH); […]
# Triethanolamine 50 mM, EDTA 0.5 mM, CaCl2 226 μM, MgCl2 477 μM, L-arginine 50 μM, calmodulin 0.5 μM, FAD 5 μM, NADPH 1 mM, BH4 (if added) 2 μM, substance to be tested 100 μM. […] 9 ml of scintillator solution are added to the 3 ml aqueous measuring solution and the homogeneous mixture is measured for 1 minute per sample in a Tricarb 2500 TR (Packard) liquid scintillation counter. […]
row,Structure (SMILES),remaining activity at 100 µM [%]
1,CC(NC(=O)OCc1ccccc1)C(=O)OCc1cnc2nc(N)[nH]c(=O)c2n1 (stereo not shown) [Example 21],60.8
2,Nc1nc2ncc(COC(=O)C(Cc3ccccc3)NC(=O)OCc3ccccc3)nc2c(=O)[nH]1 (stereo not shown) [Example 23],2.5
3,CSCc1cnc2nc(N)[nH]c(=O)c2n1 [Example 37],22.9

# Tested on: purified NO synthase from pig liver
# Assay: Inhibition of the activity of purified nitric oxide synthase (NOS), 3H-L-citrulline formation, enzyme from pig liver
# Type: biochemical
# Conditions: substance 100 μM, antagonistic test in the presence of 2 μM tetrahydrobiopterin, 37° C., 15 minutes
# Description: The inhibition of NO release by the compounds of the formula I can be determined by an activity assay based on the studies of Bredt and Snyder and also Schmidt et al. (see D. S. Bredt and S. S. Snyder, Isolation of nitric oxide synthase, a calmodulin-requiring enzyme, Proc. Natl. Acad. Sci. USA 87 (1990), 682; H. H. H. W. Schmidt et al., Purification of a soluble isoform of guanylyl cyclase-activating factor synthase, Proc. Natl. Acad. Sci. USA 88 (1991), 365). In this assay for purified NO synthase (NOS) the coproduct L-citrulline obtained during NO formation is determined quantitatively. […] After the enzyme incubation is complete, resulting L-citrulline is removed from unused L-arginine by means of ion-exchange chromatography of the reaction mixture; the ^3 H-activity determined by liquid scintillation measurement then corresponds to the amount of L-citrulline. […]
# The coproduct L-citrulline obtained during the formation of NO by purified NOS is determined quantitatively in this activity assay. […] After the enzyme incubation is complete, resulting L-citrulline is removed from unused L-arginine by means of ion-exchange chromatography of the reaction mixture; the ^3 H activity measured by liquid scintillation then corresponds to the amount of L-citrulline, which is a direct measure of the activity of NOS. […]
row,Structure (SMILES),Citrulline formation (% of the control)
1,N=c1[nH]c(N)nc2ncc(CN)nc12 [Example 76],22.4 % of the control

# Tested on: NO synthase
# Assay: not given
# Conditions: literature reports (Kwon et al.; Giovanelli et al.; Hevel and Marletta); cited from earlier work
row,Structure (SMILES),Effect on NO production / NO synthase activity
1,C[C@H](O)[C@H](O)[C@H]1CNc2nc(N)[nH]c(=O)c2N1 [tetrahydrobiopterin],stimulates NO production
2,"C[C@H](O)[C@H](O)C1=Nc2c(nc(N)[nH]c2=O)NC1 [7,8-dihydrobiopterin]",Stimulation of NO production
3,Nc1nc2ncc(CNc3ccc(C(=O)N[C@@H](CCC(=O)O)C(=O)O)cc3)nc2c(=O)[nH]1 [folic acid],no significant effects
4,C[C@H](O)[C@H](O)c1cnc2nc(N)[nH]c(=O)c2n1 [biopterin],no significant effects
5,"CC1CNc2nc(N)[nH]c(=O)c2N1 (stereo not shown) [6-methyl-5,6,7,8-tetrahydropterin]",increase in NO synthase activity
6,Nc1nc2nccnc2c(=O)[nH]1 [pterin],no significant effects
